Source: patent publication US11573281B2, “Magnetic resonance fingerprinting method for recordings with a contrast agent” (Bayer Aktiengesellschaft, priority 2018, dated 2023)
Like-named read-outs stand apart in the source and are kept apart here.

Key:
[1] = Blood, cited from earlier work
[2] = Plasma, Rohrer et al., cited from earlier work
[3] = molar relaxivity of Gd-EOB-DTPA in bile; format: physicochemical
[4] = Water, Rohrer et al., cited from earlier work
[5] = Liver tissue, 0.47 T; Schuhmann-Giampieri et al.; cited from earlier work
[6] = molar relaxivity of Gd-EOB-DTPA in blood; format: physicochemical
[7] = molar relaxivity of Gd-EOB-DTPA in liver tissue; format: physicochemical; settings: for molar relaxivity: Liver tissue
[8] = molar relaxivity of Gd-EOB-DTPA in urine; format: physicochemical
[9] = molar relaxivity of Gd-EOB-DTPA in plasma; format: physicochemical; settings: plasma vs bile

molar relaxivity ([3]; 1.41 T): 5.6 ± 0.3 (s·mmol/L)^−1 | molar relaxivity ([3]; 1.5 T): 5.6 ± 0.4 (s·mmol/L)^−1 | molar relaxivity ([3]; 3 T): 5.6 ± 0.3 (s·mmol/L)^−1 | molar relaxivity ([6]; 1.41 T): 8.1 ± 0.2 (s·mmol/L)^−1 | molar relaxivity ([6]; 1.5 T): 8.3 ± 0.3 (s·mmol/L)^−1 | molar relaxivity ([6]; 3 T): 7.2 ± 0.1 (s·mmol/L)^−1 | molar relaxivity ([7]; 1.41 T): 14.0 ± 2.8 (s·mmol/L)^−1 | molar relaxivity ([7]; 1.5 T): 16.4 ± 3.1 (s·mmol/L)^−1 | molar relaxivity ([7]; 3 T): 13.4 ± 4.0 (s·mmol/L)^−1 | molar relaxivity in liver cells (hepatocytes) compared with plasma ([7]; liver cells (hepatocytes) vs plasma): significantly higher | molar relaxivity ([8]; 1.41 T): 5.5 ± 0.1 (s·mmol/L)^−1 | molar relaxivity ([8]; 1.5 T): 5.5 ± 0.2 (s·mmol/L)^−1 | molar relaxivity ([8]; 3 T): 5.6 ± 0.1 (s·mmol/L)^−1 | molar relaxivity in plasma compared with bile [9]: significantly higher
SMILES: CCOc1ccc(CC(CN(CCN(CC(=O)[O-])CC(=O)[O-])CC(=O)[O-])N(CC(=O)[O-])CC(=O)[O-])cc1.[Gd+3].[Na+].[Na+] (centres unmarked) [Gd-EOB-DTPA, gadolinium ethoxybenzyl diethylenetriaminepentaacetic acid]
molar relaxivity ([1]; 0.47 T, Schuhmann-Giampieri et al.): 11.0^(2) (s·mmol/L)^−1 | molar relaxivity ([1]; 1.5 T, Rohrer et al.): 7.3 (s·mmol/L)^−1 | molar relaxivity ([2]; 0.47 T): 8.7^(1) (s·mmol/L)^−1 | molar relaxivity ([2]; 1.5 T): 6.9^(1) (s·mmol/L)^−1 | molar relaxivity ([2]; 3 T): 6.2^(1) (s·mmol/L)^−1 | molar relaxivity ([4]; 0.47 T): 5.3^(1) (s·mmol/L)^−1 | molar relaxivity ([4]; 1.5 T): 4.7^(1) (s·mmol/L)^−1 | molar relaxivity ([4]; 3 T): 4.3^(1) (s·mmol/L)^−1 | molar relaxivity [5]: 16.6^(2) (s·mmol/L)^−1
